The source of these data is article PMC4926326, “Synthesis, Biological Activity, and Apoptotic Properties of NO-Donor/Enmein-Type ent-Kauranoid Hybrids” (International Journal of Molecular Sciences, 2016).

Series [1] deals with Bacillus subtilis (CMCC 63501). Put plainly: Antibacterial assay, microbroth dilution MIC. The class given is cell-based. The conditions noted are these: Bacillus subtilis, CMCC63501; 35 °C, 18 h; read-out: MIC B. subtilis. The source says:
(§1) The antibacterial activity of NO donor/enmein-type ent-kauranoid hybrids 9a–i against the Gram-negative bacterium Escherichia coli (ATCC 25922), Gram-positive bacterium Staphylococcus aureus (ATCC 29213) and Bacillus subtilis (CMCC 63501), and the fungus Monilia albicans (ATCC 10231) was first disclosed and summarized in Table 1. […] Thus, the introduction of NO-donor substituent groups at the 14-position of enmein-type 6,7-seco-ent-kauranoid could improve antimicrobial activity against S. aureus and B. subtilis.
(§2) The minimal inhibitory concentrations (MICs) were carried out by microbroth dilution method described by the Clinical Laboratory Standards Institute. A stock solution of all the target compounds was prepared with DMSO-medium (1:2), and then graded quantities of the test compounds were diluted with medium. The specified concentration suspension of fungus and bacterium contained approximately 10^3, and 10^5 CFU/mL was added into microtitration plates. The inoculated 96-well plates were incubated at 35 °C for 18 h. MIC was defined as the lowest concentrations that prevented visible growth of the bacteria.
Background: In broth dilution the organism is exposed to a series of concentrations in liquid medium.

The test system of series [2] is Escherichia coli (ATCC 25922). The series is described as follows: Antibacterial assay, microbroth dilution MIC. The class given is cell-based. The conditions noted are these: Escherichia coli, ATCC25922; 35 °C, 18 h; read-out: MIC E. coli.
From the text: as §1, §2

Series [3] has as its system Staphylococcus aureus (ATCC 29213). The series is described as follows: Antibacterial assay, microbroth dilution MIC. The conditions noted are these: Staphylococcus aureus, ATCC29213; 35 °C, 18 h; read-out: MIC S. aureus. In kind it is cell-based.
From the text: as §1, §2

The test system of series [4] is Monilia albicans (ATCC 10231). The series is described as follows: Antifungal assay, microbroth dilution MIC. The class given is cell-based. The conditions noted are these: Candida albicans, ATCC10231; 35 °C, 18 h; read-out: MIC M. albicans.
From the text: as §1, §2

The subject of series [5] is Bel-7402 hepatoma cell line. Put plainly: MTT antiproliferative assay. The class given is cell-based, human. The conditions noted are these: for IC50: Homo sapiens, Bel-7402, MTT, 72 h, mean ± SD of three experiments, read-out: IC50 Bel-7402; for SI (selectivity index): SI = IC50, L-02/IC50, Bel-7402. Here is the method:
(§3) The antiproliferative activity of 9a–i against four human cancer cell lines K562 leukemia cell line, MGC-803 gastric cancer cell line, CaEs-17 esophageal cancer cell line, and Bel-7402 hepatoma cell line, and human normal liver cells L-02 was evaluated by MTT assay (Table 2).
(§4) MTT assay was developed to monitor mammalian cell survival and proliferation in vitro [32]. CaEs-17 cells (K562, Bel-7402 and MGC-803 cells) from American Type Culture Collection (ATCC, Manassas, VA, USA) were cultivated in RPMI-1640 medium supplemented with 5% fetal bovine serum (v/v), 100 U/mL penicillin, and […] streptomycin. Cells (5 × 10^4 cell/mL) at the log phase of their growth cycle were added to each well of a 96-well plate (100 µL/well) and incubated for 24 h at 37 °C in a humidified atmosphere of 5% CO2. Then, cells were treated with or without test compounds in different concentrations. After 72 h, 5 mg/mL MTT solution (20 µL per well) was added. Cells were incubated at 37 °C. After 4 h, MTT solution was removed and DMSO was added to each well (150 µL). Ten minutes later at room temperature, the optical density (OD) values were measured at the wavelength of 490 nm on a Microplate Reader NO. 550 (BIO-RAD Instruments Inc., Hercules, CA, USA). In this experiment, 10 µg/mL of Taxol was used as the positive control and 0.1% DMSO was used as the negative reference.
On the technique in general: Tetrazolium assays rely on reduction of a dye to a coloured formazan, in cell work by metabolically active cells.

The subject of series [6] is K562 leukemia cell line. The series is described as follows: MTT antiproliferative assay. In kind it is cell-based, human. The conditions noted are these: MTT, 72 h, mean ± SD of three experiments, read-out: IC50 K562. Here is the method:
as §3, §4

The subject of series [7] is MGC-803 gastric cancer cell line. Put plainly: MTT antiproliferative assay. In kind it is cell-based, human. The conditions noted are these: MTT, 72 h, mean ± SD of three experiments, read-out: IC50 MGC-803. Here is the method: as §3, §4
Series [8] deals with CaEs-17 esophageal cancer cell line. The series is described as follows: MTT antiproliferative assay. The conditions noted are these: Homo sapiens, CaEs17; MTT, 72 h, mean ± SD of three experiments; read-out: IC50 CaEs-17. The class given is cell-based. Here is the method: as §3, §4
The subject of series [9] is human normal liver cells L-02. Put plainly: MTT assay on normal cells. The conditions noted are these: MTT, 72 h, normal liver cells, mean ± SD of three experiments, read-out: IC50 L-02. In kind it is cell-based. Here is the method: as §3, §4
Series [10] deals with Bel-7402 cells. The series is described as follows: Cell cycle distribution by PI staining and flow cytometry. The class given is cell-based, human. The conditions noted are these: 48 h, control 25.51%. From the text: Cell cycle arrest is an important sign for inhibition of proliferation and the series of events that take place in a cell leading to its division and replication. […] As the inhibitory effect of 9f on cell proliferation was observed, we next assessed the effect on the cell cycle distribution of Bel-7402 cells by flow cytometry (Figure 2). […] Compound 9f could influence Bel-7402 cell cycle progression at low micromolar concentrations in a dose-dependent manner.
Bel-7402 cells (5.0 × 10^3 cells/well) were plated in 6-well plates and incubated for 24 h, and then incubated with different concentrations (0.25, 0.5 and 1 μM) of 9f at 37 °C for 48 h. After 48 h treatment, cells were treated with 70% ethanol and RNase, sequentially, and stained with PI [34]. Cellular DNA content was measured by a flow cytometer for cell cycle distribution analysis.
(In general: Flow cytometry measures light scatter and fluorescence of single cells or particles in a stream.)

For series [11], the system named is Bel-7402 cells. The series is described as follows: Apoptosis by Annexin-V and PI double staining, flow cytometry. In kind it is cell-based, human. The conditions noted are these: 72 h; for total percentage of apoptotic cells (early and late, Q2 + Q4): vehicle 7.88%. Here is the method: To examine the potent cancer cell antiproliferative effect of 9f on Bel-7402 cells, the number of apoptotic cells was monitored using flow cytometry. The total percentage of apoptotic cells (early and late, Q2 + Q4) was 7.88% treated with a vehicle alone.
Bel-7402 cells were incubated with different concentrations (0.25, 0.5 and 1 μM) of 9f for 72 h. Then, Annexin-V and PI double staining was used to detect apoptotic cells to analyze apoptosis according to the manufacturer’s instructions by flow cytometry.

Series [12] concerns Bel-7402 cells. Put plainly: Mitochondrial membrane potential, JC-1 staining, flow cytometry. In kind it is cell-based, human. The conditions noted are these: 48 h, 0 μM 4.62%. Here is the method:
In the field of cancer, cellular apoptosis plays a very important role. The loss of mitochondrial membrane potential is a key event during drug-induced apoptosis. In order to investigate the mitochondria related effect of 9f, the fluorescent probe JC-1 (Keygen, KGA601, Nanjing, China) was used to detect the changes on mitochondrial membrane potential. Before Bel-7402 cells were stained with JC-1, cells were incubated with 0, 0.15, 0.3, and 0.6 μM of 9f. Then, the flow cytometry analysis was carried out to determine the cell numbers with collapsed mitochondria in different cell groups (Figure 4).
Bel-7402 cells were cultured in six-well plates after treatment with 9f or vehicles for 48 h. The cells were cells were collected by trypsinization, washed with PBS (Sigma Chemical Co., Shanghai, China) and stained according to the manufacturer’s instruction (Keygen, KGA601, Nanjing, China) with the lipophilic cationic dye JC-1. The flow cytometry analysis was carried out to monitor the percentage of cells with healthy or collapsed mitochondrial membrane potentials.

In brackets after ≈: the same amount, converted by molar mass. Read-outs that look alike come from different tables or passages of the source.

A word on the MIC: it is the smallest concentration in the dilution series that meets the test's criterion for growth inhibition. In general, IC50 refers to the midpoint of a concentration-inhibition curve. Broadly, the melting point is the temperature of the solid-liquid transition. `C=C1C(=O)[C@@]23C(=O)O[C@H]4CCC(C)(C)[C@H]5[C@H](O)OC[C@@]45[C@@H]2CC[C@@H]1[C@H]3OC(=O)c1ccccc1C(=O)OCCCOc1no[n+]([O-])c1S(=O)(=O)c1ccccc1` [Compound 9f] had a melting point of 128 to 130 °C. Moreover, the minimum inhibitory concentration (MIC) in series [1] was 64 µg/mL (≈ 80.7 µM). The MIC in series [2] was greater than 100 µg/mL. Also, the minimal inhibitory concentration (MIC) in series [3] stood at 32 µg/mL (≈ 40.4 µM). Also, in series [4], the MIC is greater than 100 µg/mL. For the same compound, in [5], the half-maximal inhibitory concentration (IC50) stood at 720 ± 40 nM and the “SI (selectivity index)” value is reported as 26.1. Further, the IC50 in [6] (Homo sapiens, K562, 72 h) was 1680 ± 120 nM. Also, the half-inhibitory concentration (IC50) in series [7] (Homo sapiens, MGC-803, 72 h) amounted to 1110 ± 50 nM. The half-maximal inhibitory concentration (IC50) in series [8] was 3600 ± 120 nM. Also, the IC50 in series [9] came to 18800 ± 1250 nM. The “cells in S phase” value in [10] (0.25 μM) came out at 31.78%. Besides, the “cells in S phase” value in series [10] (0.5 μM) is given as 45.33%. In series [10] (1 μM), the “cells in S phase” value is 49.78%. In series [11] (0.25 μM), the “apoptotic cells, fold of control group” value came out at 2.76 fold; the “total percentage of apoptotic cells (early and late, Q2 + Q4)” value (“total percentage of apoptotic cells” below) was found to be 21.74%. For the same compound, in series [11] (0.5 μM), the “apoptotic cells, fold of control group” value is given as 4.54 fold; the “total percentage of apoptotic cells” value is 35.78%. Further, in [11] (1 μM), the “apoptotic cells, fold of control group” value is recorded as 8.01 fold; the “total percentage of apoptotic cells” value is reported as 63.15%. Moreover, in series [12] (0.15 μM), the “percentage of apoptotic cells (collapsed mitochondria, JC-1)” value was found to be 8.81%. The “percentage of apoptotic cells (collapsed mitochondria, JC-1)” value in series [12] (0.3 μM) worked out at 21.82%. For the same compound, the “percentage of apoptotic cells (collapsed mitochondria, JC-1)” value in series [12] (0.6 μM) was 25.98%.
Compound `C=C1C(=O)[C@@]23C(=O)O[C@H]4CCC(C)(C)[C@H]5[C@H](O)OC[C@@]45[C@@H]2CC[C@@H]1[C@H]3OC(=O)c1ccccc1C(=O)OCCCCOc1no[n+]([O-])c1S(=O)(=O)c1ccccc1` [Compound 9i] showed a melting point of 126 to 128 °C. Also, in series [1], the MIC came to 2 µg/mL (≈ 2.48 µM). In [2], the minimal inhibitory concentration (MIC) is greater than 100 µg/mL. Moreover, the MIC in series [3] came to 16 µg/mL (≈ 19.8 µM). In series [4], the MIC is greater than 100 µg/mL. Moreover, in series [5], the IC50 is 780 ± 40 nM and the “SI (selectivity index)” value is listed as 18.6. Besides, the IC50 in [6] (Homo sapiens, K562, 72 h) was found to be 1250 nM. Moreover, the concentration for half-maximal inhibition (IC50) in [6] stood at 1860 ± 180 nM. Moreover, in series [7] (Homo sapiens, MGC-803, 72 h), the IC50 stood at 1860 nM. Moreover, in series [7], the concentration for half-maximal inhibition (IC50) was 1250 ± 100 nM. The IC50 in [8] was determined as 3820 ± 190 nM. Also, in series [9], the concentration for half-maximal inhibition (IC50) amounted to 14600 ± 860 nM.
